Measured values published in PubChem BioAssay (NCI).
Several values for one entry are separate records, joined by “and”; a condition that tells them apart may be missing. Identical values can stand only once.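 Tested at 5 concentrations; 48 h exposure; 96-well plates; endpoints linearly interpolated, else capped at highest concentration. GI50: concentration for 50% inhibition of growth. TGI marks complete inhibition of growth.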

Tests used:
Experiment in all cases: inhibition of tumour cell growth, NCI panel, 48 h
[1] = system: U251 CNS
[2] = system: MDA-MB-231 breast
[3] = system: SF-539 CNS
[4] = system: HL-60(TB) leukemia
[5] = system: SK-MEL-5 melanoma
[6] = system: SNB-75 CNS
[7] = system: SK-OV-3 ovarian
[8] = system: SF-268 CNS
[9] = system: OVCAR-4 ovarian
[10] = system: OVCAR-3 ovarian

Work on `Nc1nn2c(C(Br)Br)cc(C(Br)Br)nc2c1[N+](=O)[O-]` yielded a TGI [1] of 2.54 µM, a TGI [2] of 2.95 µM and a TGI [3] of 1.16 µM. For the same molecule, the TGI [4] was 0.431 µM, the TGI [5] was 3.06 µM and the TGI [6] was 2.29 µM. It also gave a TGI [7] of 12 µM and a TGI [8] of 4.8 µM.
`COc1cc2c(cc1OC)C1c3ccccc3CCN1CC2` (stereo unspecified) gave a TGI [1] greater than 100 µM, a TGI [2] greater than 100 µM and a TGI [3] of 75.1 µM. It also gave a TGI [9] greater than 100 µM, a TGI [4] of 80.3 µM and a TGI [5] greater than 100 µM. The TGI [6] was greater than 100 µM, the TGI [7] was greater than 100 µM and the TGI [10] was greater than 100 µM. The TGI [8] was greater than 100 µM.
Molecule `COc1cc2c(cc1OCCCCOc1cc(-c3ccc(F)cc3)nc(C)n1)N=C[C@@H]1CCCN1C2=O` has a TGI [1] of 2.55 µM, a TGI [2] of 5.18 µM and a TGI [3] of 2.31 µM. For the same molecule, the TGI [9] was 2.3 µM, the TGI [4] was 28.7 µM and the TGI [5] was 1.44 µM. For the same molecule, the TGI [6] was 17.8 µM, the TGI [7] was 16.2 µM and the TGI [10] was 2.66 µM. For the same molecule, the TGI [8] was 16.3 µM.
In the case of `O=[N+]([O-])C(=C(N1CCCCC1)N1CCCCC1)/C(Cl)=C(\Cl)Br`, the TGI [1] is reported as 56.3 µM, the TGI [2] is reported as 70.6 µM and the TGI [3] is reported as 69.2 µM. The TGI [9] was 66.5 µM, the TGI [4] was 37.9 µM and the TGI [5] was 46 µM. For the same molecule, the TGI [6] was 34.4 µM, the TGI [7] was greater than 100 µM and the TGI [10] was 81.4 µM. The TGI [8] was 87.9 µM.
`CN(C)c1nc(=NCc2ccncc2)ss1` showed a TGI [1] of 32.1 µM, a TGI [2] greater than 54 µM and a TGI [3] greater than 67 µM. The TGI [9] was 39.2 µM, the GI50 [4] was 14.2 µM and the TGI [4] was 47 µM. For the same molecule, the GI50 [5] was greater than 100 µM, the TGI [5] was greater than 100 µM and the TGI [6] was 34.7 µM. For the same molecule, the TGI [7] was greater than 64.6 µM, the TGI [10] was greater than 82.3 µM and the TGI [8] was greater than 100 µM.
`COc1ccc2c(c1)O/C(=C\c1cccc(OCC(=O)Nc3nc4c(s3)CCCC4)c1)C2=O` showed a GI50 [1] of 2.8 µM, a TGI [1] of 8.31 µM and a GI50 [2] of 6.58 µM. For the same molecule, the TGI [2] was greater than 53.9 µM, the GI50 [3] was 16.7 µM and the TGI [3] was 44.1 µM. For the same molecule, the GI50 [9] was greater than 100 µM, the TGI [9] was greater than 100 µM and the GI50 [4] was 3.32 µM. The TGI [4] was 18.5 µM, the GI50 [5] was greater than 71.8 µM and the TGI [5] was greater than 100 µM. The GI50 [6] was 11.5 µM, the TGI [6] was 54.9 µM and the GI50 [7] was greater than 72.6 µM. The TGI [7] was greater than 100 µM, the GI50 [10] was 2.98 µM and the TGI [10] was 7.63 µM. The GI50 [8] was 5.33 µM and the TGI [8] was 12.3 µM.
Work on `Cc1ccc(S(=O)(=O)N2CCSCCSCCSCCSCC2)cc1` yielded a TGI [1] of 35.3 µM, a TGI [2] of 56.6 µM and a TGI [3] of 43.7 µM. It also gave a TGI [9] of 64.2 µM, a TGI [4] greater than 100 µM and a TGI [5] greater than 86.9 µM. For the same molecule, the TGI [6] was 29.8 µM, the TGI [7] was 46 µM and the TGI [10] was 60.7 µM. The TGI [8] was greater than 75.8 µM.
With `O=C(O)C1CC(c2ccc(F)cc2)=Nc2ccc(F)cc2S1` (stereo unspecified) the TGI [2] was greater than 100 µM, the TGI [3] was greater than 100 µM and the TGI [9] was greater than 100 µM. The TGI [4] was greater than 100 µM, the TGI [5] was greater than 100 µM and the TGI [6] was greater than 100 µM. For the same molecule, the TGI [7] was greater than 100 µM, the TGI [10] was greater than 100 µM and the TGI [8] was greater than 100 µM.
Work on `O=C1C(c2c(O)[nH]c3ccc(S(=O)(=O)O)cc23)=Nc2ccccc21` yielded a TGI [1] greater than 100 µM, a TGI [2] greater than 100 µM and a TGI [9] greater than 100 µM. It also gave a TGI [4] greater than 100 µM, a TGI [5] greater than 100 µM and a TGI [6] greater than 100 µM. It also gave a TGI [7] greater than 100 µM, a TGI [10] greater than 100 µM and a TGI [8] greater than 100 µM.
`CCNC(=O)Nc1ccccn1` was tested, and the TGI [1] was greater than 100 µM, the TGI [2] was greater than 100 µM and the TGI [3] was greater than 100 µM. It also gave a TGI [9] greater than 100 µM, a TGI [4] greater than 100 µM and a TGI [5] greater than 100 µM. It also gave a TGI [6] greater than 100 µM, a TGI [7] greater than 100 µM and a TGI [10] greater than 100 µM. For the same molecule, the TGI [8] was greater than 100 µM.
In the case of `CC1(C)C(c2ccccc2)=[N+]([O-])C(C)(C)N1O`, the TGI [1] is reported as greater than 10 µM, the TGI [2] is reported as greater than 10 µM and the TGI [3] is reported as greater than 10 µM. The TGI [9] was greater than 10 µM, the TGI [4] was greater than 10 µM and the TGI [5] was greater than 10 µM. It also gave a TGI [6] greater than 10 µM, a TGI [7] greater than 10 µM and a TGI [10] greater than 10 µM. For the same molecule, the TGI [8] was greater than 10 µM.
Molecule `CC(=O)OC(C)c1cc2c(s1)C(=O)c1sccc1C2=O` (stereo unspecified) has a TGI [1] of 4.4 µM, a TGI [2] of 16.8 µM and a TGI [3] of 0.689 µM. The TGI [9] was 3.5 µM, the TGI [4] was greater than 100 µM and the TGI [5] was 0.32 µM. The TGI [6] was 2.63 µM, the TGI [7] was 9.73 µM and the TGI [10] was 8.71 µM. For the same molecule, the TGI [8] was 4.09 µM.
`CCC1=CCC23C(=O)C=CC(=O)C2(C1)C(=O)c1cccc(OC)c1C3=O` (stereo unspecified) gave a TGI [1] of 61.8 µM, a TGI [2] of 29.8 µM and a TGI [3] of 32.9 µM. For the same molecule, the TGI [9] was 26.1 µM, the TGI [4] was 7.36 µM and the TGI [5] was 31.5 µM. For the same molecule, the TGI [6] was 33.5 µM, the TGI [10] was 27.2 µM and the TGI [8] was 36.2 µM.
Work on `COc1cccc(-c2cc(=O)c3c(C)cc(C)nc3[nH]2)c1` yielded a TGI [1] greater than 88.6 µM, a TGI [2] greater than 100 µM and a TGI [9] greater than 100 µM. The TGI [4] was 0.505 µM, the TGI [5] was 14.8 µM and the TGI [6] was 0.671 µM. The TGI [7] was greater than 100 µM, the TGI [10] was 0.652 µM and the TGI [8] was 36.2 µM.
In the case of `CN(C)NC(=S)Nc1ccccc1Br`, the TGI [1] is reported as greater than 100 µM, the TGI [2] is reported as greater than 100 µM and the TGI [3] is reported as greater than 100 µM. For the same molecule, the TGI [9] was greater than 100 µM, the TGI [4] was greater than 100 µM and the TGI [5] was greater than 100 µM. It also gave a TGI [6] greater than 100 µM, a TGI [7] greater than 100 µM and a TGI [10] greater than 100 µM.
For `CCOP(=O)(OCC)C1C(CO)OC(n2ccc(=O)[nH]c2=O)C1O` (stereo unspecified), the TGI [2] was greater than 100 µM, the TGI [3] was greater than 100 µM and the TGI [9] was greater than 100 µM. The TGI [4] was greater than 100 µM, the TGI [5] was greater than 100 µM and the TGI [6] was greater than 100 µM. For the same molecule, the TGI [10] was greater than 100 µM and the TGI [8] was greater than 100 µM.
With `Oc1ccc(-c2nnc3sc(-c4ccc(F)cc4)nn23)cc1` the GI50 [1] was 17.3 µM, the TGI [1] was 41.9 µM and the GI50 [2] was 10.6 µM. For the same molecule, the TGI [2] was 46.8 µM, the GI50 [3] was 36.5 µM and the TGI [3] was greater than 100 µM. For the same molecule, the GI50 [9] was greater than 100 µM, the TGI [9] was greater than 100 µM and the GI50 [4] was greater than 100 µM. The TGI [4] was greater than 100 µM, the GI50 [5] was 70.4 µM and the TGI [5] was greater than 100 µM. The GI50 [6] was 22.8 µM, the TGI [6] was 43.3 µM and the GI50 [7] was 34.9 µM. The TGI [7] was greater than 100 µM, the GI50 [10] was 18.6 µM and the TGI [10] was greater than 100 µM. The GI50 [8] was 23 µM and the TGI [8] was 62.6 µM.
`CC(C)=C[C@@H]1C[C@H](n2cc(C)c(=O)[nH]c2=O)ON1CCO` gave a TGI [1] greater than 100 µM, a TGI [2] greater than 100 µM and a TGI [3] greater than 100 µM. It also gave a TGI [9] greater than 100 µM, a TGI [4] greater than 100 µM and a TGI [5] greater than 100 µM. The TGI [6] was greater than 100 µM, the TGI [7] was greater than 100 µM and the TGI [10] was greater than 100 µM. It also gave a TGI [8] greater than 100 µM.
With `COC(=O)NN(C(=O)OC)c1c(-c2ccccc2)nc(SC)n1N` the TGI [1] was greater than 100 µM, the TGI [2] was greater than 100 µM and the TGI [3] was greater than 100 µM. For the same molecule, the TGI [9] was greater than 100 µM, the TGI [4] was greater than 100 µM and the TGI [5] was greater than 100 µM. It also gave a TGI [6] greater than 100 µM, a TGI [10] greater than 100 µM and a TGI [8] greater than 100 µM.
`Nc1c2ccccc2nc2c1ccc1ncccc12` was tested, and the TGI [1] was greater than 100 µM, the TGI [2] was 96.1 µM and the TGI [3] was 49.9 µM. The TGI [9] was 63 µM, the TGI [4] was 20.4 µM and the TGI [5] was greater than 100 µM. It also gave a TGI [6] of 99.4 µM, a TGI [7] greater than 100 µM and a TGI [10] greater than 100 µM.
With `C=C1C(=O)OC2/C=C(\CO)C(OC(C)=O)CC(O)/C(C)=C/C(OC(=O)C(C)CC)C12` (stereo unspecified) the TGI [1] was > 91.6 µM and 66.3 µM, the TGI [2] was 32.7 µM and the TGI [3] was 37.9 µM and 66 µM. The TGI [9] was 32.5 µM and > 100 µM, the TGI [4] was 39.6 µM and 30.9 µM and the TGI [5] was 33 µM and 30.9 µM. For the same molecule, the TGI [6] was 69.3 µM and 96.3 µM, the TGI [7] was greater than 100 µM and the TGI [10] was 33.4 µM and 30.6 µM. For the same molecule, the TGI [8] was 73.3 µM and 49.9 µM.
